Experimental data reported in PMC10705561 (bioRxiv, 2023).

Key:
[1] = system: rNsp5-L50F/E166V recombinant SARS-CoV-2; assay type: cell-based
[2] = system: rNsp5-S144M recombinant SARS-CoV-2; assay type: cell-based

In the case of `CC(C)(C)[C@H](NC(=O)C(F)(F)F)C(=O)N1C[C@H]2[C@@H]([C@H]1C(=O)N[C@H](C#N)C[C@@H]1CCNC1=O)C2(C)C` [nirmatrelvir], the “EC50 fold-increase compared to WT” value [1] is reported as 24.2 and the “EC50 fold-increase compared to WT” value [2] is reported as 12.5.
